This note sets out measurements from patent publication US20230265151A1, “GIP/GLP1 CO-AGONIST COMPOUNDS” (priority 2020, published 2023).

Type in all cases: cell-based
The target of one test is T1, hGIPR (Homo sapiens, UniProt P48546).
T1 construct: expressed in transfected cells
T1 sequence (P48546 22-466): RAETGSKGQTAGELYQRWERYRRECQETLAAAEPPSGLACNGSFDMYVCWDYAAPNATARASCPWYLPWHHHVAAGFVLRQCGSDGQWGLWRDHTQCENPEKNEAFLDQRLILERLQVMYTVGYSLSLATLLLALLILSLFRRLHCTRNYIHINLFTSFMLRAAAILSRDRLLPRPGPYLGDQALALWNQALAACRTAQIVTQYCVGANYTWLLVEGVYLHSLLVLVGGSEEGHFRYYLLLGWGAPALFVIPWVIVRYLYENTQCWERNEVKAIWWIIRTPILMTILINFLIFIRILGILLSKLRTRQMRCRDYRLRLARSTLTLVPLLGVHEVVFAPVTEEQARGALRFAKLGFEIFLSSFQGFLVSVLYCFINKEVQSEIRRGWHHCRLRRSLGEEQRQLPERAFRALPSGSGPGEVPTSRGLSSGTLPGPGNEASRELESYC
As to the kind of experiment: Functional cAMP formation (HTRF) in HEK-293 clonal cells expressing hGIPR, 0.1% bovine casein, without or with 1.0% human serum albumin. As to conditions: for Emax: read-out: hGIPR Emax, % ± SEM; for EC50: cAMP, read-out: hGIPR EC50, nM (SEM, n). In short, it runs like this: (§1)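 Cells were stimulated with peptide for 30 min at 37° C, then intracellular cAMP was measured by competitive HTRF (665/620 nm ratio) and converted to nM using a cAMP standard curve. Relative EC50 and Emax came from four-parameter logistic fits of percent maximal response against peptide concentration.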
A general note: Changes in cAMP serve as a functional read-out for many G protein-coupled receptors.

The target of the next test is T2, hGCGR (Homo sapiens, UniProt P47871).
T2 construct: expressed in transfected cells
As to the kind of experiment: Functional cAMP formation (HTRF) in HEK-293 clonal cells expressing hGCGR, 0.1% bovine casein, without or with 1.0% human serum albumin. As to conditions: read-out: hGCGR EC50, nM (SEM, n). In short, it runs like this:
as §1

Another test deals with hGLP-1R (Homo sapiens, UniProt P43220). As to the kind of experiment: Functional cAMP formation (HTRF) in HEK-293 clonal cells expressing hGLP-1R, 0.1% bovine casein, without or with 1.0% human serum albumin. On the set-up: expressed in transfected cells. As to conditions: for Emax: read-out: hGLP-1R Emax, % ± SEM; for EC50: geometric mean, read-out: hGLP-1R EC50, nM (SEM, n). In short, it runs like this: as §1

[1] abbreviates: 37° C., 0.1% bovine casein (no human serum albumin), geometric mean.
Setting [2] is: cAMP, 37° C., 0.1% bovine casein (no human serum albumin), geometric mean.
Where [3] appears, read: HEK293, cAMP, 37° C., 0.1% bovine casein, percent of maximal response to GLP-1(7-36)NH2, arithmetic mean.
Setting [4] is: HEK293, cAMP, 37° C., 0.1% bovine casein and 1.0% human serum albumin, percent of maximal response to GIP(1-42)NH2.
[5] abbreviates: cAMP, 37° C., 0.1% bovine casein and 1.0% human serum albumin, geometric mean (SEM, n).
The mark [6] stands for this setting: HEK293, cAMP, 37° C., 0.1% bovine casein and 1.0% human serum albumin, percent of maximal response to GLP-1(7-36)NH2.
Setting [7] is: cAMP, 37° C., 0.1% bovine casein (no human serum albumin).

Read-outs that look alike come from different tables or passages of the source. Where a SMILES comes first, the peptide text is derived from it. Side-chain parts run from the residue outwards. [ ]: non-standard residue; d: D form. The star is where a group is joined. αMePhe(2-F) = C[C@](N)(Cc1ccccc1F)C(=O)O; C14 diacid = O=C(O)CCCCCCCCCCCCC(=O)*; αMeY = C[C@](N)(Cc1ccc(O)cc1)C(=O)O; αMeL = CC(C)C[C@](C)(N)C(=O)O; Orn = NCCC[C@H](N)C(=O)O; AEEA = NCCOCCOCC(=O)O; Aib = CC(C)(N)C(=O)O

hGLP-1R, sequence (P43220 24-463): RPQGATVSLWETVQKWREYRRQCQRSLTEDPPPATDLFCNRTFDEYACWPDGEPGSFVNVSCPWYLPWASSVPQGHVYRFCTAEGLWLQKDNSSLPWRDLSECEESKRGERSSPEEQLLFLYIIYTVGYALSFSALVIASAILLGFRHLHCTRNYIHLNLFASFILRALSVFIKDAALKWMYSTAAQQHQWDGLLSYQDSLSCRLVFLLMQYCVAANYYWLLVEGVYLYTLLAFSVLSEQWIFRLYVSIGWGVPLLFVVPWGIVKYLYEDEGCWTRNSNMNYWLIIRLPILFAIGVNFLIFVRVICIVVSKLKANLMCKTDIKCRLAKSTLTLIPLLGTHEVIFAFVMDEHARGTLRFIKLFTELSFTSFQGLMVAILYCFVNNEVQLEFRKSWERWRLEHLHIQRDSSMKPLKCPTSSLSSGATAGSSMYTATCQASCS
T2 sequence (P47871 26-477): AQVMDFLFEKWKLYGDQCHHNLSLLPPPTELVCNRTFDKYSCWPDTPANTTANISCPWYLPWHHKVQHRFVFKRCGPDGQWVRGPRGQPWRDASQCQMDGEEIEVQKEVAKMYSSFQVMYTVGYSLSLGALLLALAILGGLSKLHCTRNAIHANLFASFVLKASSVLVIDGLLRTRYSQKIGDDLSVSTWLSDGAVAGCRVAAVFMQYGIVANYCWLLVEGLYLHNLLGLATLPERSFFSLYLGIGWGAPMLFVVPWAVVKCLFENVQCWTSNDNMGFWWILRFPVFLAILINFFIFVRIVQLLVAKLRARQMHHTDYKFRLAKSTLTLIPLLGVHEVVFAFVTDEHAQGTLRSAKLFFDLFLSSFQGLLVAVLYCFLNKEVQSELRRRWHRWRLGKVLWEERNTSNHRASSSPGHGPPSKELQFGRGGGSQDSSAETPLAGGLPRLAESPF

The Emax is the greatest response seen or fitted, relative to the assay's reference. For orientation: EC50 means the concentration needed to bring the measured effect to its halfway point. Take `CC[C@H](C)[C@H](NC(=O)[C@H](CC(C)C)NC(=O)[C@](C)(Cc1ccc(O)cc1)NC(=O)[C@@H](CCC(=O)O)NC(=O)[C@@H](NC(=O)[C@H](Cc1ccccc1)NC(=O)[C@H](CCC(=O)O)NC(=O)C(C)(C)NC(=O)[C@H](CCC(N)=O)NC(=O)[C@H](C)NC(=O)[C@H](CCCCNC(=O)COCCOCCNC(=O)COCCOCCNC(=O)CC[C@H](NC(=O)CCCCCCCCCCCCC(=O)O)C(=O)O)NC(=O)[C@H](CCCN)NC(=O)[C@H](CC(=O)O)NC(=O)[C@H](CC(C)C)NC(=O)[C@](C)(CC(C)C)NC(=O)[C@@H](NC(=O)[C@H](CO)NC(=O)[C@H](Cc1cscn1)NC(=O)[C@H](CC(=O)O)NC(=O)[C@H](CO)NC(=O)[C@@H](NC(=O)[C@](C)(Cc1ccccc1F)NC(=O)[C@@H](NC(=O)CNC(=O)[C@H](CCC(=O)O)NC(=O)C(C)(C)NC(=O)[C@@H](N)Cc1ccc(O)cc1)[C@@H](C)O)[C@@H](C)O)[C@@H](C)CC)[C@@H](C)CC)C(=O)N[C@@H](CCC(=O)O)C(=O)NCC(=O)NCC(=O)N[C@@H](CCCCNC(=O)COCCOCCNC(=O)COCCOCCNC(=O)CC[C@H](NC(=O)CCCCCCCCCCCCC(=O)O)C(=O)O)C(=O)N[C@@H](CO)C(=O)N[C@@H](CO)C(=O)NCC(=O)N[C@@H](C)C(=O)N1CCC[C@H]1C(=O)N1CCC[C@H]1C(=O)N1CCC[C@H]1C(=O)N[C@@H](CO)C(N)=O` [Example 144]: the Emax was 90% at hGIPR (HEK293, percent of maximal response to GIP(1-42)NH2, 37° C., 0.1% bovine casein, arithmetic mean) and 97% at hGLP-1R (HEK293, percent of maximal response to GLP-1(7-36)NH2, 37° C., 0.1% bovine casein, arithmetic mean). Also, the EC50 is 0.0193 nM on hGIPR (incubated at 37° C., 0.1% bovine casein (no human serum albumin), geometric mean); more than 9950 nM on hGCGR (cAMP, incubated at 37° C., 0.1% bovine casein (no human serum albumin), geometric mean); 3.47 nM on hGLP-1R (cAMP, incubated at 37° C., 0.1% bovine casein (no human serum albumin)).
As for `CC[C@H](C)[C@H](NC(=O)[C@H](CC(C)C)NC(=O)[C@](C)(Cc1ccc(O)cc1)NC(=O)[C@@H](CCC(=O)O)NC(=O)[C@@H](NC(=O)[C@H](Cc1ccccc1)NC(=O)[C@H](CCC(=O)O)NC(=O)C(C)(C)NC(=O)[C@H](CCC(N)=O)NC(=O)[C@H](C)NC(=O)[C@H](CCCCNC(=O)COCCOCCNC(=O)COCCOCCNC(=O)CCCCCCCCCCCCC(=O)O)NC(=O)[C@H](CCCN)NC(=O)[C@H](CC(=O)O)NC(=O)[C@H](CC(C)C)NC(=O)[C@](C)(CC(C)C)NC(=O)[C@@H](NC(=O)[C@H](CO)NC(=O)[C@H](Cc1ccc(OC)cc1)NC(=O)[C@H](CC(=O)O)NC(=O)[C@H](CO)NC(=O)[C@@H](NC(=O)[C@](C)(Cc1ccccc1F)NC(=O)[C@@H](NC(=O)CNC(=O)[C@H](CCC(=O)O)NC(=O)C(C)(C)NC(=O)[C@@H](N)Cc1ccc(O)cc1)[C@@H](C)O)[C@@H](C)O)[C@@H](C)CC)[C@@H](C)CC)C(=O)N[C@@H](CCCCNC(=O)COCCOCCNC(=O)COCCOCCNC(=O)CCCCCCCCCCCCC(=O)O)C(=O)NCC(=O)NCC(=O)N1CCC[C@H]1C(=O)N[C@@H](CO)C(=O)N[C@@H](CO)C(=O)NCC(=O)N[C@@H](C)C(=O)N1CCC[C@H]1C(=O)N1CCC[C@H]1C(=O)N1CCC[C@H]1C(=O)N[C@@H](CO)C(N)=O` [Example 266] (H-Y[Aib]EGT[αMePhe(2-F)]TSDY(Me)SI[αMeL]LD[Orn]K([AEEA-AEEA-C14 diacid])AQ[Aib]EFI[dE][αMeY]LIK([AEEA-AEEA-C14 diacid])GGPSSGAPPPS-NH2), the Emax at hGIPR (HEK293, 0.1% bovine casein and 1.0% human serum albumin, 37° C., percent of maximal response to GIP(1-42)NH2) came out at 82.7%; on hGIPR (HEK293, cAMP, 37° C., 0.1% bovine casein, percent of maximal response to GIP(1-42)NH2, arithmetic mean) it was 93.2%; at hGLP-1R (HEK293, 0.1% bovine casein and 1.0% human serum albumin, 37° C., percent of maximal response to GLP-1(7-36)NH2) it was 97.6%; on hGLP-1R (setting [3]), 90.5%. Further, the EC50 at hGIPR (setting [1]) is 0.0136 nM; at hGCGR (0.1% bovine casein and 1.0% human serum albumin, 37° C., geometric mean), more than 9950 nM; on hGCGR (setting [2]) it was more than 9950 nM; at hGLP-1R (0.1% bovine casein and 1.0% human serum albumin, 37° C.), 5.83 nM.
On to `CC[C@H](C)[C@H](NC(=O)[C@H](CC(C)C)NC(=O)[C@](C)(Cc1ccc(O)cc1)NC(=O)[C@H](CCCCNC(=O)CCOCCOCCOCCOCCOCCNC(=O)CC[C@H](NC(=O)CCCCCCCCCCCCC(=O)O)C(=O)O)NC(=O)[C@@H](NC(=O)[C@H](Cc1ccccc1)NC(=O)[C@H](CCCN)NC(=O)C(C)(C)NC(=O)[C@H](CCC(N)=O)NC(=O)[C@H](C)NC(=O)[C@H](CCC(N)=O)NC(=O)[C@H](CCCN)NC(=O)[C@H](CC(=O)O)NC(=O)[C@H](CC(C)C)NC(=O)[C@](C)(CC(C)C)NC(=O)[C@@H](NC(=O)C(C)(C)NC(=O)[C@H](Cc1ccncc1)NC(=O)[C@H](CC(=O)O)NC(=O)[C@H](CO)NC(=O)[C@@H](NC(=O)[C@](C)(Cc1ccccc1F)NC(=O)[C@@H](NC(=O)CNC(=O)[C@H](CCC(=O)O)NC(=O)C(C)(C)NC(=O)[C@@H](N)Cc1ccc(O)cc1)[C@@H](C)O)[C@@H](C)O)[C@@H](C)CC)[C@@H](C)CC)C(=O)N[C@@H](CCCCNC(=O)CCOCCOCCOCCOCCOCCNC(=O)CC[C@H](NC(=O)CCCCCCCCCCCCC(=O)O)C(=O)O)C(=O)NCC(=O)NCC(=O)N1CCC[C@H]1C(=O)N[C@@H](CO)C(=O)N[C@@H](CO)C(=O)NCC(=O)N[C@@H](C)C(=O)N1CCC[C@H]1C(=O)N1CCC[C@H]1C(=O)N1CCC[C@H]1C(=O)N[C@@H](CO)C(N)=O` [Example 467], for which the Emax was found to be 88.4% at hGIPR (setting [4]), 97.9% on hGLP-1R (setting [6]) and 110% at hGLP-1R (setting [3]). Also, the EC50 was 0.0113 nM at hGIPR (setting [1]); 0.35 nM at hGIPR (37° C., 0.1% bovine casein and 1.0% human serum albumin, geometric mean (SEM, n)); more than 10100 nM at hGCGR (setting [2]); more than 10100 nM on hGCGR (setting [5]); 0.131 nM at hGLP-1R (setting [7]).
As for `CC[C@H](C)[C@H](NC(=O)[C@H](CC(C)C)NC(=O)[C@](C)(Cc1ccc(O)cc1)NC(=O)[C@H](CCCCNC(=O)COCCOCCNC(=O)COCCOCCNC(=O)[C@H]1CC[C@H](CNC(=O)CC[C@H](NC(=O)CCCCCCCCCCCCC(=O)O)C(=O)O)CC1)NC(=O)[C@@H](NC(=O)[C@H](Cc1ccccc1)NC(=O)[C@H](CCCN)NC(=O)C(C)(C)NC(=O)[C@H](CCC(N)=O)NC(=O)[C@H](C)NC(=O)[C@H](CCC(N)=O)NC(=O)[C@H](CCCN)NC(=O)[C@H](CC(=O)O)NC(=O)[C@H](CC(C)C)NC(=O)[C@](C)(CC(C)C)NC(=O)[C@@H](NC(=O)C(C)(C)NC(=O)[C@H](Cc1ccncc1)NC(=O)[C@H](CC(=O)O)NC(=O)[C@H](CO)NC(=O)[C@@H](NC(=O)[C@](C)(Cc1ccccc1F)NC(=O)[C@@H](NC(=O)CNC(=O)[C@H](CCC(=O)O)NC(=O)C(C)(C)NC(=O)[C@@H](N)Cc1ccc(O)cc1)[C@@H](C)O)[C@@H](C)O)[C@@H](C)CC)[C@@H](C)CC)C(=O)N[C@@H](CCCCNC(=O)COCCOCCNC(=O)COCCOCCNC(=O)[C@H]1CC[C@H](CNC(=O)CC[C@H](NC(=O)CCCCCCCCCCCCC(=O)O)C(=O)O)CC1)C(=O)NCC(=O)NCC(=O)N1CCC[C@H]1C(=O)N[C@@H](CO)C(=O)N[C@@H](CO)C(=O)NCC(=O)N[C@@H](C)C(=O)N1CCC[C@H]1C(=O)N1CCC[C@H]1C(=O)N1CCC[C@H]1C(=O)N[C@@H](CO)C(N)=O` [Example 470], the results for the Emax at hGIPR (setting [4]), on hGLP-1R (setting [6]) and on hGLP-1R (setting [3]) were 93.9%, 113% and 112%, respectively. Besides, the EC50 is 0.0103 nM on hGIPR (setting [1]), more than 9950 nM at hGCGR (setting [2]), more than 9950 nM at hGCGR (setting [5]) and 0.127 nM on hGLP-1R (setting [7]).
